Data on 3 molecules can be found in ChEMBL document CHEMBL3046001, “4-Thiazolidinone and 1-thia-3,4,9-triaza fluorene conjugates: synthesis, characterization and antimicrobial screening” (2013).

The subject of experiment [1] is Pseudomonas fluorescens. Nature of the experiment: Antibacterial activity against Pseudomonas fluorescens MTCC 2421 assessed as growth inhibition at 250 ug/mL after 48 hr by agar diffusion method. The following applies: MTCC 2421, 48 h, read-out: DIZ. Type of experiment: functional. (In general: In agar diffusion tests the substance spreads into inoculated agar from a disc or well.)

For experiment [2], the system named is Penicillium chrysogenum. Briefly: Antifungal activity against Penicillium chrysogenum MTCC 161 assessed as growth inhibition at 250 ug/mL after 48 hr by agar diffusion method. Type of experiment: functional. The following applies: for zone of inhibition at 250 µg/mL: MTCC 161, 48 h, read-out: DIZ.
Experiment [3] concerns Penicillium chrysogenum. Briefly: Antifungal activity against Penicillium chrysogenum MTCC 161 assessed as growth inhibition at 1000 ug/mL after 48 hr by agar diffusion method. The following applies: MTCC 161, 48 h, read-out: DIZ. Type of experiment: functional.
The subject of experiment [4] is Staphylococcus aureus. Briefly: Antibacterial activity against Staphylococcus aureus MTCC 1430 assessed as growth inhibition at 1000 ug/mL after 48 hr by agar diffusion method. Type of experiment: functional. The following applies: MTCC 1430, 48 h, read-out: DIZ.
Experiment [5] relates to Penicillium chrysogenum. Briefly: Antifungal activity against Penicillium chrysogenum MTCC 161 assessed as growth inhibition at 500 ug/mL after 48 hr by agar diffusion method. The following applies: MTCC 161, 48 h, read-out: DIZ. Type of experiment: functional.
Experiment [6] deals with Pseudomonas aeruginosa. Briefly: Antibacterial activity against Pseudomonas aeruginosa MTCC 424 assessed as growth inhibition at 1250 ug/mL after 48 hr by agar diffusion method. The following applies: MTCC 424, 48 h, read-out: DIZ. Type of experiment: functional.
For experiment [7], the system named is Micrococcus luteus. Briefly: Antibacterial activity against Micrococcus luteus MTCC 1538 assessed as growth inhibition at 1000 ug/mL after 48 hr by agar diffusion method. The following applies: MTCC 1538, 48 h, read-out: DIZ. Type of experiment: functional.
Experiment [8] relates to Staphylococcus aureus. Briefly: Antibacterial activity against Staphylococcus aureus MTCC 1430 assessed as growth inhibition at 250 ug/mL after 48 hr by agar diffusion method. Type of experiment: functional. The following applies: for zone of inhibition at 250 µg/mL: MTCC 1430, 48 h, read-out: DIZ.
Experiment [9] deals with Aspergillus niger. Nature of the experiment: Antifungal activity against Aspergillus niger MTCC 2546 assessed as growth inhibition at 100 ug/mL after 48 hr by agar diffusion method. Type of experiment: functional, organism-based.
In experiment [10] the test system is Aspergillus niger. Nature of the experiment: Antifungal activity against Aspergillus niger MTCC 2546 assessed as growth inhibition at 1250 ug/mL after 48 hr by agar diffusion method. The following applies: MTCC 2546, 48 h, read-out: DIZ. Type of experiment: functional.
A further experiment relates to Bacillus pumilus. Briefly: Antibacterial activity against Bacillus pumilus MTCC 1456 assessed as growth inhibition at 750 ug/mL after 48 hr by agar diffusion method. Type of experiment: functional. The following applies: MTCC 1456, 48 h, read-out: DIZ.
Experiment [11] relates to Pseudomonas aeruginosa. Briefly: Antibacterial activity against Pseudomonas aeruginosa MTCC 424 assessed as growth inhibition at 500 ug/mL after 48 hr by agar diffusion method. Type of experiment: functional. The following applies: MTCC 424, 48 h, read-out: DIZ.
Experiment [12] has as its system Penicillium chrysogenum. Nature of the experiment: Antifungal activity against Penicillium chrysogenum MTCC 161 assessed as growth inhibition at 750 ug/mL after 48 hr by agar diffusion method. Type of experiment: functional. The following applies: MTCC 161, 48 h, read-out: DIZ.
For experiment [13], the system named is Bacillus subtilis. Nature of the experiment: Antibacterial activity against Bacillus subtilis MTCC 441 assessed as growth inhibition at 500 ug/mL after 48 hr by agar diffusion method. Type of experiment: functional. The following applies: MTCC 441, 48 h, read-out: DIZ.
Experiment [14] relates to Staphylococcus aureus. Nature of the experiment: Antibacterial activity against Staphylococcus aureus MTCC 1430 assessed as growth inhibition at 1250 ug/mL after 48 hr by agar diffusion method. Type of experiment: functional. The following applies: MTCC 1430, 48 h, read-out: DIZ.
For experiment [15], the system named is Micrococcus luteus. Briefly: Antibacterial activity against Micrococcus luteus MTCC 1538 assessed as growth inhibition at 100 ug/mL after 48 hr by agar diffusion method. Type of experiment: functional.
Experiment [16] concerns Pseudomonas fluorescens. Briefly: Antibacterial activity against Pseudomonas fluorescens MTCC 2421 assessed as growth inhibition at 1000 ug/mL after 48 hr by agar diffusion method. Type of experiment: functional. The following applies: MTCC 2421, 48 h, read-out: DIZ.
The test system of another experiment is Escherichia coli. Nature of the experiment: Antibacterial activity against Escherichia coli MTCC 1573 assessed as growth inhibition at 1250 ug/mL after 48 hr by agar diffusion method. Type of experiment: functional. The following applies: MTCC 1573, 48 h, read-out: DIZ.
Experiment [17] deals with Pseudomonas fluorescens. Nature of the experiment: Antibacterial activity against Pseudomonas fluorescens MTCC 2421 assessed as growth inhibition at 750 ug/mL after 48 hr by agar diffusion method. Type of experiment: functional. The following applies: MTCC 2421, 48 h, read-out: DIZ.
In experiment [18] the test system is Staphylococcus aureus. Briefly: Antibacterial activity against Staphylococcus aureus MTCC 1430 assessed as growth inhibition at 100 ug/mL after 48 hr by agar diffusion method. Type of experiment: functional, organism-based.
Experiment [19] relates to Bacillus subtilis. Briefly: Antibacterial activity against Bacillus subtilis MTCC 441 assessed as growth inhibition at 750 ug/mL after 48 hr by agar diffusion method. Type of experiment: functional. The following applies: MTCC 441, 48 h, read-out: DIZ.
Experiment [20] concerns Pseudomonas aeruginosa. Nature of the experiment: Antibacterial activity against Pseudomonas aeruginosa MTCC 424 assessed as growth inhibition at 1000 ug/mL after 48 hr by agar diffusion method. The following applies: MTCC 424, 48 h, read-out: DIZ. Type of experiment: functional.
In experiment [21] the test system is Staphylococcus aureus. Briefly: Antibacterial activity against Staphylococcus aureus MTCC 1430 assessed as growth inhibition at 750 ug/mL after 48 hr by agar diffusion method. Type of experiment: functional. The following applies: MTCC 1430, 48 h, read-out: DIZ.
The test system of experiment [22] is Bacillus subtilis. Nature of the experiment: Antibacterial activity against Bacillus subtilis MTCC 441 assessed as growth inhibition after 24 hr by tube dilution method. Type of experiment: functional. The following applies: MTCC 441, 24 h.

Each structure is given as a SMILES string. Converted amounts (≈) assume the structure as drawn. The source made the active and inactive calls.

Broadly, the MIC is the smallest concentration in the dilution series that meets the test's criterion for growth inhibition. On to `O=C1CSC(c2cccc3ccccc23)N1c1nnc2c3ccccc3nc-2s1` (configuration not stated), for which the zone of inhibition at 250 µg/mL with Pseudomonas fluorescens [1] amounted to 10 mm; in the experiment on Penicillium chrysogenum [2], 8 mm; in the experiment with Staphylococcus aureus [8], 8 mm. For the same molecule, the zone of inhibition at 1000 µg/mL worked out at 12 mm with Penicillium chrysogenum [3]; 14 mm in the experiment with Staphylococcus aureus [4]; 14 mm in the experiment on Micrococcus luteus [7]; 19 mm in the experiment with Pseudomonas fluorescens [16]; 17 mm with Pseudomonas aeruginosa [20]. Besides, the zone of inhibition at 500 µg/mL is 9 mm in the experiment with Penicillium chrysogenum [5], 13 mm with Pseudomonas aeruginosa [11] and 13 mm with Bacillus subtilis [13]. Also, the zone of inhibition at 1250 µg/mL with Pseudomonas aeruginosa [6] came to 20 mm; in the experiment on Aspergillus niger [10] it was 19 mm; in the experiment on Staphylococcus aureus [14] it was 18 mm; with Escherichia coli, 18 mm. In addition, the “growth inhibition (GI)” value in the experiment with Aspergillus niger [9], in the experiment on Micrococcus luteus [15] and in the experiment with Staphylococcus aureus [18] was “inactive” throughout. In addition, the zone of inhibition at 750 µg/mL is 15 mm in the experiment with Bacillus pumilus; 10 mm in the experiment with Penicillium chrysogenum [12]; 16 mm in the experiment on Pseudomonas fluorescens [17]; 15 mm in the experiment on Bacillus subtilis [19]; 12 mm in the experiment with Staphylococcus aureus [21]. For the same molecule, the MIC in the experiment with Bacillus subtilis [22] came out at 40 µg/mL (≈ 96.5 µM).
`CC1SCC(=O)N1c1nnc2c3ccccc3nc-2s1` (configuration not stated): the zone of inhibition at 250 µg/mL in the experiment with Pseudomonas fluorescens [1] is 10 mm. Further, the “growth inhibition (GI)” value with Penicillium chrysogenum [2], in the experiment with Staphylococcus aureus [8], in the experiment on Aspergillus niger [9] and with Staphylococcus aureus [18] was “inactive” each time. The zone of inhibition at 1000 µg/mL came to 15 mm in the experiment with Penicillium chrysogenum [3]; 15 mm in the experiment with Staphylococcus aureus [4]; 17 mm in the experiment on Micrococcus luteus [7]; 21 mm in the experiment on Pseudomonas fluorescens [16]; 20 mm in the experiment on Pseudomonas aeruginosa [20]. Besides, the zone of inhibition at 500 µg/mL worked out at 10 mm in the experiment on Penicillium chrysogenum [5], 12 mm in the experiment on Pseudomonas aeruginosa [11] and 15 mm in the experiment on Bacillus subtilis [13]. Further, the zone of inhibition at 1250 µg/mL in the experiment with Pseudomonas aeruginosa [6] worked out at 24 mm; with Aspergillus niger [10], 17 mm; in the experiment with Staphylococcus aureus [14], 17 mm; in the experiment on Escherichia coli it was 20 mm. The zone of inhibition at 750 µg/mL in the experiment with Bacillus pumilus was 18 mm; in the experiment on Penicillium chrysogenum [12] it was 12 mm; with Pseudomonas fluorescens [17] it was 17 mm; in the experiment with Bacillus subtilis [19] it was 18 mm; with Staphylococcus aureus [21], 11 mm. In addition, the zone of inhibition at 100 µg/mL in the experiment with Micrococcus luteus [15] (MTCC 1538, 48 h, read-out: DIZ) was determined as 8 mm. The minimal inhibitory concentration (MIC) in the experiment with Bacillus subtilis [22] amounted to 30 µg/mL (≈ 99.2 µM).
As to `O=C1CSC(c2ccccn2)N1c1nnc2c3cc(Cl)ccc3nc-2s1` (configuration not stated), the zone of inhibition at 250 µg/mL with Pseudomonas fluorescens [1] is 8 mm; with Penicillium chrysogenum [2], 9 mm; with Staphylococcus aureus [8], 7 mm. Also, the zone of inhibition at 1000 µg/mL was found to be 18 mm in the experiment on Penicillium chrysogenum [3]; 13 mm in the experiment on Staphylococcus aureus [4]; 15 mm in the experiment on Micrococcus luteus [7]; 17 mm in the experiment with Pseudomonas fluorescens [16]; 18 mm with Pseudomonas aeruginosa [20]. The figures for the zone of inhibition at 500 µg/mL with Penicillium chrysogenum [5], with Pseudomonas aeruginosa [11] and in the experiment on Bacillus subtilis [13] were 12 mm, 13 mm and 9 mm, respectively. In addition, the zone of inhibition at 1250 µg/mL in the experiment with Pseudomonas aeruginosa [6] came to 20 mm; in the experiment with Aspergillus niger [10] it was 20 mm; in the experiment with Staphylococcus aureus [14] it was 17 mm; in the experiment on Escherichia coli, 23 mm. Besides, the “growth inhibition (GI)” value with Aspergillus niger [9], in the experiment on Micrococcus luteus [15] and in the experiment with Staphylococcus aureus [18] was “inactive” in each case. Besides, the zone of inhibition at 750 µg/mL in the experiment with Bacillus pumilus was found to be 18 mm; in the experiment on Penicillium chrysogenum [12], 15 mm; in the experiment on Pseudomonas fluorescens [17], 15 mm; in the experiment with Bacillus subtilis [19] it was 14 mm; with Staphylococcus aureus [21], 11 mm. For the same molecule, the minimal inhibitory concentration (MIC) in the experiment on Bacillus subtilis [22] came out at 150 µg/mL (≈ 375 µM).
